pIC50: −log10 of the molar value.
Assays:
[1] = target: T1, Signal transducer and activator of transcription 3 (Homo sapiens, UniProt P40763); assay: Inhibition of STAT3 (unknown origin) expressed in human HCT116 cells after 24 hrs by dual-luciferase reporter gene assay; assay type: cell-based
[2] = target: T1, Signal transducer and activator of transcription 3; assay: Inhibition of STAT3 phosphorylation at Tyr705 residues in human DU145 cells at 5 uM after 24 hrs by Western blot analysis; assay type: cell-based
[3] = target: T1, Signal transducer and activator of transcription 3; assay: Inhibition of STAT3 phosphorylation at Tyr705 residues in human DU145 cells assessed as ratio of phosphorylated STAT3 protein level to GAPDH protein level at 0.1 uM after 24 hrs by Western blot analysis (reference value: 1); assay type: cell-based
DU-145 [4] = assay: Effect on total STAT3 protein level in human DU145 cells assessed as ratio of STAT3 protein level to GAPDH protein level at 1 uM after 24 hrs by Western blot analysis (reference value: 1); assay type: ADME, cell-based; settings: du-145, 24 h
DU-145 [5] = assay: Effect on total STAT3 protein level in human DU145 cells assessed as ratio of STAT3 protein level to GAPDH protein level at 5 uM after 24 hrs by Western blot analysis (reference value: 1); assay type: ADME, cell-based; settings: du-145, 24 h
[6] = target: T1, Signal transducer and activator of transcription 3; assay: Inhibition of STAT3 phosphorylation at Tyr705 residues in human DU145 cells assessed as ratio of phosphorylated STAT3 protein level to GAPDH protein level at 5 uM after 3 hrs by Western blot analysis (reference value: 1); assay type: cell-based
[7] = target: T1, Signal transducer and activator of transcription 3; assay: Inhibition of STAT3 phosphorylation at Tyr705 residues in human DU145 cells assessed as ratio of phosphorylated STAT3 protein level to GAPDH protein level at 5 uM after 6 hrs by Western blot analysis (reference value: 1); assay type: cell-based
[8] = target: T1, Signal transducer and activator of transcription 3; assay: Inhibition of STAT3 phosphorylation at Tyr705 residues in human DU145 cells assessed as ratio of phosphorylated STAT3 protein level to GAPDH protein level at 5 uM after 12 hrs by Western blot analysis (reference value: 1); assay type: cell-based
DU-145 [9] = assay: Effect on total STAT3 protein level in human DU145 cells assessed as ratio of STAT3 protein level to GAPDH protein level at 5 uM after 3 hrs by Western blot analysis (reference value: 1); assay type: ADME, cell-based; settings: du-145, 3 h
[10] = target: T1, Signal transducer and activator of transcription 3; assay: Inhibition of STAT3 in human DU145 cells assessed as ratio of cyclin A protein level to tubulin protein level at 5 uM after 48 hrs by Western blot analysis (reference value: 1); assay type: cell-based
[11] = target: T1, Signal transducer and activator of transcription 3; assay: Inhibition of STAT3 in human DU145 cells assessed as ratio of Bcl-xl protein level to tubulin protein level at 5 uM after 48 hrs by Western blot analysis (reference value: 1); assay type: cell-based
[12] = target: T1, Signal transducer and activator of transcription 3; assay: Inhibition of STAT3 in human DU145 cells assessed as ratio of PARP protein level to tubulin protein level at 5 uM after 48 hrs by Western blot analysis (reference value: 1); assay type: cell-based
[13] = target: T1, Signal transducer and activator of transcription 3; assay: Inhibition of STAT3 phosphorylation in human LNCAP cells assessed as ratio of phosphorylated STAT3 protein level to GAPDH protein level at 5 uM after 12 hrs by Western blot analysis (reference value: 1); assay type: cell-based
DU-145 [14] = assay: Cell cycle arrest in human DU145 cells assessed as accumulation at G2/M phase at 5 uM after 12 hrs by flow cytometry (reference value: 18.12%); assay type: functional
DU-145 [15] = assay: Cell cycle arrest in human DU145 cells assessed as accumulation at G0/G1 phase at 5 uM after 24 hrs by flow cytometry (reference value: 24.07%); assay type: functional
DU-145 [16] = assay: Cell cycle arrest in human DU145 cells assessed as accumulation at S phase at 5 uM after 48 hrs by flow cytometry (reference value: 6.6%); assay type: functional
[17] = target: T1, Signal transducer and activator of transcription 3; assay: Binding affinity to STAT3 in human DU145 cell lysates assessed as reduction in pronase-induced STAT3 digestion by measuring ratio of STAT3 protein level to GAPDH protein level at 50 uM incubated for 1 hr followed by 0.01% pronase addition for 10 mins by Western blot analysis (reference value: 0.7)
[18] = target: T1, Signal transducer and activator of transcription 3; assay: Binding affinity to STAT3 in human DU145 cell lysates assessed as reduction in pronase-induced STAT3 digestion by measuring ratio of STAT3 protein level to GAPDH protein level at 50 uM incubated for 1 hr followed by 0.1% pronase addition for 10 mins by Western blot analysis (reference value: 0.2)
[19] = target: T1, Signal transducer and activator of transcription 3; assay: Binding affinity to STAT3 in human DU145 cell lysates assessed as reduction in pronase-induced STAT3 digestion by measuring ratio of STAT3 protein level to GAPDH protein level at 50 uM incubated for 1 hr in absence of pronase by Western blot analysis (reference value: 1)
[20] = target: T1, Signal transducer and activator of transcription 3; assay: Binding affinity to STAT3 in human DU145 cell lysates assessed as reduction in pronase-induced STAT3 digestion by measuring ratio of STAT3 protein level to GAPDH protein level at 100 uM incubated for 1 hr in absence of pronase by Western blot analysis (reference value: 1)
[21] = target: T1, Signal transducer and activator of transcription 3; assay: Binding affinity to STAT3 in human DU145 cell lysates assessed as reduction in pronase-induced STAT3 digestion by measuring ratio of STAT3 protein level to GAPDH protein level at 1 uM incubated for 1 hr followed by 0.05% pronase addition for 10 mins by Western blot analysis (reference value: 1)
[22] = target: T1, Signal transducer and activator of transcription 3; assay: Binding affinity to STAT3 in human DU145 cell lysates assessed as reduction in pronase-induced STAT3 digestion by measuring ratio of STAT3 protein level to GAPDH protein level at 50 uM incubated for 1 hr followed by 0.05% pronase addition for 10 mins by Western blot analysis (reference value: 1)
[23] = target: T1, Signal transducer and activator of transcription 3; assay: Inhibition of STAT3-induced ERK1/2 phosphorylation in human DU145 cells assessed as ratio of phosphorylated ERK1/2 protein level to GAPDH protein level at 5 uM after 3 hrs by Western blot analysis (reference value: 1); assay type: cell-based
[24] = target: T1, Signal transducer and activator of transcription 3; assay: Inhibition of STAT3-induced ERK1/2 phosphorylation in human DU145 cells assessed as ratio of phosphorylated ERK1/2 protein level to GAPDH protein level at 5 uM after 6 hrs by Western blot analysis (reference value: 1); assay type: cell-based
[25] = target: T1, Signal transducer and activator of transcription 3; assay: Inhibition of STAT3-induced ERK1/2 phosphorylation in human DU145 cells assessed as ratio of phosphorylated ERK1/2 protein level to GAPDH protein level at 5 uM after 12 hrs by Western blot analysis (reference value: 1); assay type: cell-based
DU-145 [26] = assay: Effect on total ERK1/2 protein level in human DU145 cells assessed as ratio of ERK1/2 protein level to GAPDH protein level at 5 uM after 3 hrs by Western blot analysis (reference value: 1); assay type: ADME, cell-based; settings: du-145, 3 h
DU-145 [27] = assay: Effect on total ERK1/2 protein level in human DU145 cells assessed as ratio of ERK1/2 protein level to GAPDH protein level at 5 uM after 12 hrs by Western blot analysis (reference value: 1); assay type: ADME, cell-based; settings: du-145, 12 h
DU-145 [28] = assay: Effect on total STAT3 protein level in human DU145 cells assessed as ratio of ERK1/2 protein level to GAPDH protein level at 5 uM preincubated with NAC for 1 hr followed by compound addition for 1 hr by Western blot analysis (reference value: 1); assay type: ADME, cell-based; settings: du-145, 1 h

T1 sequence (P40763 whole entry): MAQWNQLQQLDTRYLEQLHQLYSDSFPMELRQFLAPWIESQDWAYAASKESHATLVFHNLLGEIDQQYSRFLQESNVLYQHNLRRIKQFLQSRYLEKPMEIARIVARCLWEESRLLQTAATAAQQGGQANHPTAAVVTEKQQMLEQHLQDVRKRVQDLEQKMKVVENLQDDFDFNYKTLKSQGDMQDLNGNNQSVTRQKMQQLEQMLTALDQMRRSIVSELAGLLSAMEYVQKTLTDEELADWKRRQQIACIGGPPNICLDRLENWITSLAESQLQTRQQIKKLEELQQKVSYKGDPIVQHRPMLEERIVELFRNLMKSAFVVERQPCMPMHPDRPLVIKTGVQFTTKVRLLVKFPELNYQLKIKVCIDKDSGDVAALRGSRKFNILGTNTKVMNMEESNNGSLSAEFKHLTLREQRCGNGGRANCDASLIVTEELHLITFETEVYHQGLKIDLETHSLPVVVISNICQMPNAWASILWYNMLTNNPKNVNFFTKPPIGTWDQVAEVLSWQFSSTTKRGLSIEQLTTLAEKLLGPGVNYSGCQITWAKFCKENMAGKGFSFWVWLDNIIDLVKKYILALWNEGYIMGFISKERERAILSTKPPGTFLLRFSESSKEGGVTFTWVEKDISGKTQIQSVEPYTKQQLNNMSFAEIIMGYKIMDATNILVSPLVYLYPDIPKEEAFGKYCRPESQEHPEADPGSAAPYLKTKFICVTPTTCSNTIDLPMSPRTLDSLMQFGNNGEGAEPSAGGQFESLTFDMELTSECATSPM

SMILES: C=C(C)C(=O)N(Cc1ccc(Br)cc1)C(=O)/C=C/c1cc(OC)c(OC)c(OC)c1
- pIC50 [1]: 5.00
- inhibition [1]: Dose-dependent effect
- inhibition [2]: > 70%
- Ratio [3]: 0.9
- Ratio (DU-145 [4]): 1.1
- Ratio (DU-145 [5]): 0.7
- Ratio [6]: 0.2
- Ratio [7]: 0.2
- Ratio [8]: 0.2
- Ratio (DU-145 [9]): 1
- Ratio [10]: 0.6
- Ratio [11]: 1
- Ratio [12]: 0.3 to 0.6
- Ratio [13]: 1
- Activity (DU-145 [14]): 21.05%
- Activity (DU-145 [15]): 34.79%
- Activity (DU-145 [16]): 6.57%
- Ratio [17]: 0.6
- Ratio [18]: 0.3
- Ratio [19]: 1.1
- Ratio [20]: 1.2
- Ratio [21]: 1.1
- Ratio [22]: 2.2
- Ratio [23]: 2
- Ratio [24]: 2.2
- Ratio [25]: 2.3
- Ratio (DU-145 [26]): 1.1
- Ratio (DU-145 [27]): 0.9
- Ratio (DU-145 [28]): 0.7
